Results on six molecules are retold here after patent US10711249B2, “Method for inducing hepatocytes” (KYOTO UNIVERSITY, priority 2014, dated 2020).

Structures can show the parent of a compound that is named as a salt. A value given as a limit tells only on which side of the number the result lay.

In series [1] the test system is hepatoblasts induced from human iPS cells. As to the kind of experiment: Albumin secreted into the culture medium measured by ELISA. Type of series: cell-based. To be noted: 1 μM in Stage 3, 8 days. In general terms: In an ELISA, binding on a coated surface is turned into a signal by an enzyme label.
Series [2] deals with hepatoblasts induced from human iPS cells 201B6. Nature of the series: Induction of albumin-positive cells in Stage 3 (anti-albumin immunostaining, albumin mRNA by quantitative PCR). Type of series: cell-based. The protocol:
The effects of analogous compounds (adrenergic receptor agonist, in particular, an agent having α receptor stimulating action) serving as an alternative compound for a methoxamine hydrochloride were checked. In Stage 3 as mentioned above, cells were cultured in a Hepatocyte Culture Medium (HCM SingleQuots Kit) supplemented with 1 μM etilefrine, phenylephrine or methoxamine hydrochloride for 8 days. The content ratio of albumin-positive cells and the mRNA expression level of albumin were measured in the same manner as above. […] Furthermore, the amount of albumin secreted from the obtained cell population into the culture mediumliquid was measured by ELISA.

Series [3] concerns cells obtained in Stage 2 (from human iPS cells). As to the kind of experiment: ICG (indocyanine green) uptake by induced cells. It is filed as cell-based. The following applies: agent in Stage 3 for 8 days (methoxamine hydrochloride 1 μM; HGF and oncostatin M 20 ng/ml each); 1 mg/ml ICG, 1 hour. The protocol: (§1) 1 mg/ml ICG (indocyanine green) (Sigma) was added to each cell population and cultured for 1 hour. Then, ICG uptake by the cells was observed.

Series [4] has the same test system. As to the kind of experiment: Oil Red staining of induced cells. It is filed as cell-based. The following applies: agent in Stage 3 for 8 days. How it is done:
as §1
The cells induced in the presence of HGF+OsM, methoxamine hydrochloride or DMSO and HepG2 were stained with Oil Red.

For series [5] the test system is unchanged. As to the kind of experiment: PAS staining of induced cells (glycogen accumulation). It is filed as cell-based. To be noted: agent in Stage 3 for 8 days. The protocol: as §1
The cells induced in the presence of HGF+OsM, methoxamine hydrochloride or DMSO, and HepG2 were stained with PAS.

In series [6] the test system is hepatocytes induced from human iPS cells. Nature of the series: Gene expression profile by RNA sequencing analysis (PCA, liver marker heat map). Type of series: cell-based. An excerpt:
The hepatocytes induced from human iPS cells were subjected to RNA sequencing analysis and gene expression profiles were compared.

Series [7] deals with Mouse ES cells (D3 cell line). Nature of the series: Mouse ES cell-derived cells immunostained with anti-albumin, anti-Cyp3a4 and anti-C/ebpβ antibodies. Type of series: cell-based. To be noted: Stage 3, 8 days; compared with HGF+OsM. The protocol: The content ratio of Sox17-positive cells was determined.
The content ratio of AFP-positive cells was determined.
The cells were cultured for 8 days.
The cells cultured in the medium containing methoxamine in Stage 3 for 8 days, the cells cultured in the medium containing HGF+OsM (positive control) in the same manner as above and also the cells cultured in the medium containing DMSO (negative control) were used. These cells were immuno-stained with an anti-albumin antibody (Albumin), anti-Cyp3a4 antibody and anti-C/ebpβ antibody.

Series [8] relates to CYP1A1. Nature of the series: Drug metabolizing enzyme induction reaction: CYP1A1 mRNA by quantitative PCR. Type of series: in vitro ADME, human. The following applies: 100 μM omeprazole, 2 days.
Series [9] deals with CYP3A4. As to the kind of experiment: CYP3A4 expression in induced cells (immunostaining and quantitative PCR). How it is done: A cell population obtained by culturing the cells obtained in Stage 2 in a Hepatocyte Culture Medium (HCM SingleQuots Kit) containing 20 ng/ml HGF and 20 ng/ml oncostatin M (HGF+OsM) for 8 days; a cell population obtained by culturing the cells obtained in Stage 2 in a Hepatocyte Culture Medium (HCM SingleQuots Kit) supplemented with 1 μM methoxamine hydrochloride for 8 days; a cell population obtained by culturing the cells obtained in Stage 2 in a Hepatocyte Culture Medium (HCM SingleQuots Kit) supplemented with 1 μM pregnenolone for 8 days; and a cell population obtained by culturing the cells obtained in Stage 2 in a Hepatocyte Culture Medium (HCM SingleQuots Kit) supplemented with DMSO for 8 days were immuno-stained with a CYP3A4 antibody (Proteintech Group) (FIG. 9A). […] CYP3A4mRNA expression levels were measured in these cell populations by quantitative PCR in the same manner as above.

The test system of series [10] is Mouse ES cells (D3 cell line). As to the kind of experiment: Induction of hepatocytes from mouse ES cells: expression of Tat, Cyp3a11, Cyp3a13. To be noted: 1 μM in Stage 3, 8 days; compared with HGF+OsM.
Method: In order to remove feeder cells, the cells were seeded in a plate coated with gelatin. Ten to twenty minutes later, the supernatant containing the ES cells and the culture medium was collected, then the cells were seeded in a 24-well plate coated with Matrigel basement Membrance Matrix Growth Factor Reduced (BD) such that the cells were placed in a rate of 2.0×10^4-8.0×10^4 cells/well. The cells were cultured in RPMI1640 supplemented with 1 μM CHIR99021 (Axon Medchem), 100 ng/ml Activin A (R&D systems), 2% B27 (Invitrogen) and 0.5% PenStrep (Invitrogen) for one day (Stage 1-1) (day 1).
Subsequently, 0.5 mM NaB (Sigma) was added to the medium and the cells were cultured for one day (Stage 1-2) (day 2). The medium was removed and the cells were cultured in RPMI1640 supplemented with 0.5 mM NaB (Sigma), 1 μM CHIR99021 (Axon Medchem), 100 ng/ml Activin A (R&D systems), 2% B27 (Invitrogen) and 0.5% PenStrep (Invitrogen) for 4 days (Stage 1-3) (day 6). The cells obtained in the above steps were stained with a Sox17 antibody. The content ratio of Sox17-positive cells was determined.
After completion of Stage 1, the medium was exchanged with Knockout™ DMEM (Invitrogen) supplemented with 1% DMSO, 20% KSR (Invitrogen), 1 mM L-glutamic acid, 1% NEAA (Invitrogen), 0.1 mM β mercaptoethanol, 0.5 mM NaB (Sigma) and 0.5% PenStrep. […] The content ratio of AFP-positive cells was determined. […]
For series [11], the system named is adrenergic α1 receptor. As to the kind of experiment: Mechanism study: albumin secretion with adrenergic receptor blocking agents added with methoxamine in Stage 3. It is filed as cell-based, human. The following applies: 10 μM blocking agent added with methoxamine in Stage 3, 8 days.
Method: To study the mechanism of methoxamine to increase the efficacy of hepatocyte induction, adrenergic receptor blocking agents against each adrenergic receptor were added and the secretions of albumin from the resulting cells were measured. […] Methoxamine and each adrenergic receptor blocking agent were added in Stage 3. The adrenergic receptor blocking agents used herein were as follows: 10 μM doxazosin (Sigma) as an α1 blocking agent; 10 μM yohimbine (Sigma) as an α2 blocking agent; and 10 μM metoprolol (Sigma) as a β1 blocking agent; and 10 μM butoxamine (Sigma) as a β2 blocking agent.

As to `CNC[C@H](O)c1cccc(O)c1` [phenylephrine], the “amount of albumin secreted into the culture medium (ELISA)” value (“amount” for short) in series [1] is “cells having an ability to secrete albumin can be induced”.
As for `CCNCC(O)c1cccc(O)c1` (centres unmarked) [etilefrine], in series [1], the “amount” value is reported as “cells having an ability to secrete albumin can be induced”.
For `COc1ccc(OC)c(C(O)C(C)N)c1` (centres unmarked) [methoxamine hydrochloride], the “concentration at which albumin-expressing cells were obtained (albumin mRNA, quantitative PCR)” value in series [2] (Stage 3, 8 days, tested 0 M, 1 fM, 1 pM, 1 nM, 1 μM, 50 μM, 100 μM) is on record as ≥ 1 fM. Moreover, in series [1], the “amount” value is “cells having an ability to secrete albumin can be induced”. Besides, the “ICG uptake by the induced cells” value in [3] is reported as “ICG uptake was observed”. Also, the “Oil Red staining (lipid drops) of the induced cells” value in [4] was “accumulation of lipid drops was observed in some of the cells”. Moreover, the “PAS staining (glycogen) of the induced cells” value in series [5] is reported as “stained red-purple”. Besides, the “gene expression profile compared with hepatocytes induced by HGF and OsM” value in series [6] is recorded as “substantially the same gene expression profile”. Moreover, the “immunostaining for Albumin, Cyp3a4 and C/ebpβ” value in series [7] is “very similar expression was observed”.
Regarding `COc1ccc2[nH]c([S+]([O-])Cc3ncc(C)c(OC)c3C)nc2c1` (centres unmarked) [omeprazole], the “CYP1A1 mRNA expression level” value in series [8] (HepG2 cells), in series [8] (cell population induced with 1 μM methoxamine hydrochloride in Stage 3) and in series [8] (cell population induced with HGF+OsM in Stage 3) was “expression of CYP1A1 was induced” in each case.
`CC(=O)[C@H]1CC[C@H]2[C@@H]3CC=C4C[C@@H](O)CC[C@]4(C)[C@H]3CC[C@]12C` [pregnenolone]: the “induction of albumin-positive cells at two concentrations” value in [2] (pregnenolone 150 nM and 1 μM in Stage 3) was “the same results were obtained”. Further, in series [9] (agent in Stage 3 for 8 days (1 μM; HGF and oncostatin M 20 ng/ml each)), the “CYP3A4 immunostaining of the induced cells” value was “Cells expressing CYP3A4 were found”. For the same molecule, the “CYP3A4 mRNA expression level (quantitative PCR)” value in [9] (agent in Stage 3 for 8 days, relative to cells induced with DMSO) is on record as “intensively expressed”. Besides, in [10], the “expression of Tat, Cyp3a11 and Cyp3a13” value is on record as “express the same drug metabolizing enzymes as in the case where HGF+OsM was used”.
As to `COc1cc2nc(N3CCN(C(=O)C4COc5ccccc5O4)CC3)nc(N)c2cc1OC` (centres unmarked) [doxazosin], in series [11], the “volume of albumin secretion” value is “decreased”.
